Assay results published in US20240285615A1, “MEDICAMENTS COMPRISING GLYCOSIDASE INHIBITORS” (priority 2021, published 2024).
Where two headings read alike, the source gives them in different places.

Experiments:
[1] = Phase 1 Part 2: multiple BID doses for 12 days, plasma pharmacokinetics; format: in vivo, human; settings: for AR (accumulation ratio, AUC0-tau at Day 12/AUC0-tau at Day 1) / concentration at 12 day / Cmax / Tmax / half-life / AUC: plasma; for concentration at 12 day / Cmax / Tmax / half-life / AUC: both sexes, human; for concentration at 12 day: in vivo, read-out: Cmin; for Cmax / Tmax / half-life / AUC: oral; for Tmax: median (min, max); for AUC: read-out: AUC0-tau
Description: (§1) The study was a single-centre, randomized, placebo-controlled single- and multiple ascending dose study in healthy male and female (no childbearing potential) volunteers aged 18-80 years. Study objectives were safety, tolerability, food effect and pharmacokinetics. Following identification of safe and tolerable single doses in healthy male subjects aged 18-55 years, separate cohorts were dosed to assess food effect. Furthermore, multiple-dose safety, tolerability, pharmacokinetics, CSF drug levels and pharmacodynamics were assessed in elderly (age 55-80 years) male or healthy non-child-bearing potential female volunteers.
Day 1: Twice a day (BID) dosing. Day 2: No dosing. Day 3-11: 9 days of BID dosing. Day 12: one dose in the morning.

[2] = Phase 1 Part 1b: food effect, single 300 mg dose fasted/fed, plasma pharmacokinetics; format: in vivo, human; settings: for Tmax / AUC(0-inf) / Cmax / half-life: human, plasma; for AUC(0-inf) / Cmax / half-life: arithmetic mean
Description: as §1, with “volunteers. [table]” for “volunteers.”

[3] = system: adults with PSP; experiment: Randomized, double-blind, placebo-controlled Phase 2 trial in PSP (Example 8); format: in vivo, human; settings: 75 mg, 150 mg or 300 mg TID PO, 72-week treatment
[4] = Summary statistics of steady-state metrics by mathematical modeling of pharmacokinetic data; parameters: species or system human
Excerpt: The following summary statistics of steady-state metrics have been determined based on the above experimental results (“Mathematical Modeling of Pharmacokinetic Data”, D. W. A. Bourne, Routledge, 2018): […]

[5] = 100 mg BID, Day 12, elderly subjects, arithmetic mean
[6] = 250 mg BID, Day 12, elderly subjects, arithmetic mean
[7] = 500 mg BID, Day 12, elderly subjects, arithmetic mean
[8] = po, single oral dose 300 mg, fasted condition, healthy elderly subjects
[9] = po, single oral dose 300 mg, fed condition, healthy elderly subjects

SMILES: CC(=O)Nc1nnc(N2CCN([C@@H](C)c3ccc4c(c3)OCO4)CC2)s1 [Compound (I)]
- AR (accumulation ratio, AUC0-tau at Day 12/AUC0-tau at Day 1) [1, 5]: 1.35
- AR (accumulation ratio, AUC0-tau at Day 12/AUC0-tau at Day 1) [1, 6]: 1.36
- AR (accumulation ratio, AUC0-tau at Day 12/AUC0-tau at Day 1) [1, 7]: 1.25
- dose proportionality of Cmax, AUC0-tau and AUC12-24 ([1]; Day 1, BID 100 mg to BID 500 mg): Dose proportionality was observed
- dose proportionality of Cmax, AUC0-tau and AUC0-48 ([1]; Day 12, BID 100 mg to BID 500 mg): Dose proportionality was observed
- concentration at 12 day [1, 5]: 84 ng/mL
- concentration at 12 day [1, 6]: 308 ng/mL
- concentration at 12 day [1, 7]: 743 ng/mL
- Cmax ([1]; 100 mg, 100 mg BID, Day 1 (first dose), elderly subjects, arithmetic mean): 1450 ng/mL
- Tmax ([1]; 100 mg, 100 mg BID, Day 1 (first dose), elderly subjects): 0.75 h
- half-life ([1]; 100 mg, 100 mg BID, Day 1, elderly subjects, arithmetic mean, read-out: t1/2 (converted)): 234 min
- AUC ([1]; 100 mg, 100 mg BID, Day 1, tau 12 h, elderly subjects, arithmetic mean): 4120 ng·h/mL
- Cmax ([1]; 100 mg, 100 mg BID, Day 12, elderly subjects, arithmetic mean): 1340 ng/mL
- half-life ([1]; 100 mg, 100 mg BID, Day 12, elderly subjects, arithmetic mean, read-out: t1/2 (converted)): 470 min
- Tmax ([1]; 100 mg, 100 mg BID, Day 12, elderly subjects): 2.25 h
- AUC ([1]; 100 mg, 100 mg BID, Day 12, tau 12 h, elderly subjects, arithmetic mean): 5440 ng·h/mL
- Cmax ([1]; 250 mg, 250 mg BID, Day 1 (first dose), elderly subjects, arithmetic mean): 3630 ng/mL
- Tmax ([1]; 250 mg, 250 mg BID, Day 1 (first dose), elderly subjects): 0.5 h
- half-life ([1]; 250 mg, 250 mg BID, Day 1, elderly subjects, arithmetic mean, read-out: t1/2 (converted)): 284 min
- AUC ([1]; 250 mg, 250 mg BID, Day 1, tau 12 h, elderly subjects, arithmetic mean): 10700 ng·h/mL
- Cmax ([1]; 250 mg, 250 mg BID, Day 12, elderly subjects, arithmetic mean): 3740 ng/mL
- half-life ([1]; 250 mg, 250 mg BID, Day 12, elderly subjects, arithmetic mean, read-out: t1/2 (converted)): 612 min
- Tmax ([1]; 250 mg, 250 mg BID, Day 12, elderly subjects): 1 h
- AUC ([1]; 250 mg, 250 mg BID, Day 12, tau 12 h, elderly subjects, arithmetic mean): 14300 ng·h/mL
- Cmax ([1]; 500 mg, 500 mg BID, Day 1 (first dose), elderly subjects, arithmetic mean): 6440 ng/mL
- Tmax ([1]; 500 mg, 500 mg BID, Day 1 (first dose), elderly subjects): 1.02 h
- half-life ([1]; 500 mg, 500 mg BID, Day 1, elderly subjects, N=1, read-out: t1/2 (converted)): 371 min
- AUC ([1]; 500 mg, 500 mg BID, Day 1, tau 12 h, elderly subjects, arithmetic mean): 24300 ng·h/mL
- Cmax ([1]; 500 mg, 500 mg BID, Day 12, elderly subjects, arithmetic mean): 6670 ng/mL
- half-life ([1]; 500 mg, 500 mg BID, Day 12, elderly subjects, arithmetic mean, read-out: t1/2 (converted)): 642 min
- Tmax ([1]; 500 mg, 500 mg BID, Day 12, elderly subjects): 1.5 h
- AUC ([1]; 500 mg, 500 mg BID, Day 12, tau 12 h, elderly subjects, arithmetic mean): 30200 ng·h/mL
- half-life ([1]; 100 to 500 mg BID, single dose and multiple dose conditions, read-out: terminal half-life (t½), range of means): 234 to 642 min
- overall exposure via AUC0-t and AUC0-inf, fed versus fasted [2]: comparable
- difference of exposure (AUC) and Cmax, healthy elderly versus healthy young cohort ([2]; fasted state): 15%
- Cmax in fed state as share of Cmax in fasted state ([2]; healthy elderly subjects): about 60%
- delay of absorption in fed state ([2]; healthy elderly subjects): approximately 3 hours
- exposure (AUC) in fed state as share of exposure in fasted state ([2]; healthy elderly subjects): approximately 90%
- Tmax ([2]; oral, fasted condition, read-out: median Tmax): 1 h
- Tmax ([2]; oral, with high-fat, high-calorie meal, read-out: median Tmax): 4 h
- AUC(0-inf) [2, 8]: 17100 ng·h/mL
- Cmax [2, 8]: 4160 ng/mL
- half-life [2, 8]: 436 min
- Tmax ([2]; po, single oral dose 300 mg, fasted condition, healthy elderly subjects, median (min, max), read-out: Tmax): 1 h
- AUC(0-inf) [2, 9]: 15100 ng·h/mL
- Cmax [2, 9]: 2410 ng/mL
- half-life [2, 9]: 424 min
- Tmax ([2]; po, single oral dose 300 mg, fed condition, healthy elderly subjects, median (min, max), read-out: Tmax): 4 h
- efficacy, safety and tolerability of the preferred dosage regimen [3]: especially effective, safe and well tolerated
- AUC mean ([4]; BID 125 mg): 12589 ng·h/mL
- AUC median ([4]; BID 125 mg): 12388 ng·h/mL
- Cavg mean ([4]; BID 125 mg): 521 ng/mL
- Cavg median ([4]; BID 125 mg): 358 ng/mL
- Cmax mean ([4]; BID 125 mg): 1508 ng/mL
- Cmax median ([4]; BID 125 mg): 1510 ng/mL
- Cmin mean ([4]; BID 125 mg): 139 ng/mL
- Cmin median ([4]; BID 125 mg): 130 ng/mL
- AUC mean ([4]; BID 250 mg): 25763 ng·h/mL
- AUC median ([4]; BID 250 mg): 25044 ng·h/mL
- Cavg mean ([4]; BID 250 mg): 1041 ng/mL
- Cavg median ([4]; BID 250 mg): 720 ng/mL
- Cmax mean ([4]; BID 250 mg): 3027 ng/mL
- Cmax median ([4]; BID 250 mg): 3019 ng/mL
- Cmin mean ([4]; BID 250 mg): 307 ng/mL
- Cmin median ([4]; BID 250 mg): 276 ng/mL
- AUC mean ([4]; BID 500 mg): 52673 ng·h/mL
- AUC median ([4]; BID 500 mg): 52166 ng·h/mL
- Cavg mean ([4]; BID 500 mg): 2178 ng/mL
- Cavg median ([4]; BID 500 mg): 1531 ng/mL
- Cmax mean ([4]; BID 500 mg): 6126 ng/mL
- Cmax median ([4]; BID 500 mg): 6133 ng/mL
- Cmin mean ([4]; BID 500 mg): 654 ng/mL
- Cmin median ([4]; BID 500 mg): 617 ng/mL
- AUC mean ([4]; TID 75 mg): 11072 ng·h/mL
- AUC median ([4]; TID 75 mg): 10887 ng·h/mL
- Cavg mean ([4]; TID 75 mg): 456 ng/mL
- Cavg median ([4]; TID 75 mg): 392 ng/mL
- Cmax mean ([4]; TID 75 mg): 1058 ng/mL
- Cmax median ([4]; TID 75 mg): 1053 ng/mL
- Cmin mean ([4]; TID 75 mg): 109 ng/mL
- Cmin median ([4]; TID 75 mg): 101 ng/mL
- AUC mean ([4]; TID 150 mg): 23204 ng·h/mL
- AUC median ([4]; TID 150 mg): 22835 ng·h/mL
- Cavg mean ([4]; TID 150 mg): 951 ng/mL
- Cavg median ([4]; TID 150 mg): 827 ng/mL
- Cmax mean ([4]; TID 150 mg): 2162 ng/mL
- Cmax median ([4]; TID 150 mg): 2143 ng/mL
- Cmin mean ([4]; TID 150 mg): 257 ng/mL
- Cmin median ([4]; TID 150 mg): 240 ng/mL
- AUC mean ([4]; TID 300 mg): 46780 ng·h/mL
- AUC median ([4]; TID 300 mg): 45869 ng·h/mL
- Cavg mean ([4]; TID 300 mg): 1909 ng/mL
- Cavg median ([4]; TID 300 mg): 1660 ng/mL
- Cmax mean ([4]; TID 300 mg): 4348 ng/mL
- Cmax median ([4]; TID 300 mg): 4298 ng/mL
- Cmin mean ([4]; TID 300 mg): 533 ng/mL
- Cmin median ([4]; TID 300 mg): 499 ng/mL
